Results taken from US11795177B2, “Substituted quinoline analogs as aldehyde dehydrogenase 1A1 (ALDH1A1) inhibitors” (THE UNITED STATES OF AMERICA, AS REPRESENTED BY THE …, priority 2017, dated 2023).
Values belong to the compound of their own block, whether it stands above or below them.

Columns and labels:
ALDH1A1 enzyme = molecular target: T1, ALDH1A1 enzyme (Homo sapiens, UniProt P00352); experiment: ALDH1A1 enzymatic assay (in vitro); type: biochemical; details: ALDH1A1 enzyme 20 nM, NAD+ 1 mM, propionaldehyde 80 μM; read-out: ALDH1A1 IC50
T1 sequence (P00352 1-501): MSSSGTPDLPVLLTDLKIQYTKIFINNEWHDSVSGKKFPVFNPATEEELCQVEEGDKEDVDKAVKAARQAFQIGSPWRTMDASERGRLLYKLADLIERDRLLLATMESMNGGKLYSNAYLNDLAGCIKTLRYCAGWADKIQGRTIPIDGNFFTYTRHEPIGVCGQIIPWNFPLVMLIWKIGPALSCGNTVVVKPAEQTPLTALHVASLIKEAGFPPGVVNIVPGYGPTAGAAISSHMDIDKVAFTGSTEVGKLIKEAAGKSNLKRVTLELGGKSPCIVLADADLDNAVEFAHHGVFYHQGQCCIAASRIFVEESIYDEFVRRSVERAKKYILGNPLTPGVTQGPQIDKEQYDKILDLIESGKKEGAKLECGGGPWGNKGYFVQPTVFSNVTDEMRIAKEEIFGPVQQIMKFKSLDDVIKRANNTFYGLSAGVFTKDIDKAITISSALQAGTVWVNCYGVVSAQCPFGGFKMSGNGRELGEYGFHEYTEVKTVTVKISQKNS
Method: Example 358. ALDH1A1 Enzymatic Assay (In Vitro Assay)
3 μL of ALDH1A1 enzyme (final concentration 20 nM) or assay buffer (100 mM HEPES pH 7.5 with 0.01% Tween 20) were dispensed into a 1,536-well solid-bottom black plate (Greiner Bio One, Monroe, N.C.) followed by pin-tool transfer (23 nL) of candidate inhibitors (final concentration range 968 pM to 57.2 μM) and control (Bay 11-7085, final concentration range 1.31 nM to 2.86 μM). Samples were incubated (RT, protected from light) for 15 minutes followed by a 1 μL substrate addition of NAD^+ and Propionaldehyde (final concentrations of 1 mM and 80 μM, respectively). Plates were centrifuged at 1,000 rpm for 15 seconds, then read in kinetic mode on a ViewLux High-throughput CCD imager (Perkin-Elmer) equipped with standard UV fluorescence optics (340 nm excitation, 450 nm emission) for 10 minutes. The change in fluorescence intensity over the 10-minute reaction period was normalized against no-inhibitor and no-enzyme controls and the resulting percent inhibition data were fitted for biological activity.

MIA PaCa-2 cells = experiment: MIA PaCa2 cell-based assay (1,536-well high-content imaging ALDEFLUOR assay); set-up: species or system human; details: Homo sapiens, 0.5 h, ALDEFLUOR BAAA substrate 500 nM, 30 minutes
Outline: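 High-content ALDEFLUOR imaging readout: BAA-retaining cells in FITC channel scored against Hoechst-counted nuclei. Before imaging, MIA PaCa-2 cells seeded at 1,000 per well received final 500 nM BAAA and 0.5 nM Hoechst with compounds in 16-point series (1.4 nM to 47.8 μM), 30 min, 37° C.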

SMILES: O=C(c1cnc2ccc(F)cc2c1N1CCC(CO)(c2ccccc2)CC1)N1CCN(C(=O)C2CC2)CC1 [Example 255, (4-(cyclopropanecarbonyl)piperazin-1-yl)(6-fluoro-4-(4-(hydroxymethyl)-4-phenylpiperidin-1-yl)quinolin-3-yl)methanone]
IC50 (ALDH1A1 enzyme): 1000 to 10000 nM
IC50 (MIA PaCa-2 cells): > 10000 nM

SMILES: COc1ccc2ncc(C(=O)N3CCOCC3)c(N3CCC4(CC3)OCCO4)c2c1 [Example 39, (6-methoxy-4-(1,4-dioxa-8-azaspiro[4.5]decan-8-yl)quinolin-3-yl)(morpholino)methanone]
IC50 (ALDH1A1 enzyme): 500 to 1000 nM
IC50 (MIA PaCa-2 cells): > 10000 nM

SMILES: CNC(=O)Cn1cc(NC(=O)c2cnc3ccc(F)cc3c2-c2ccc(C3(C#N)CC3)cc2)cn1 [Cpd. 355, 4-(4-(1-cyanocyclopropyl)phenyl)-6-fluoro-N-(1-(2-(methylamino)-2-oxoethyl)-1H-pyrazol-4-yl)quinoline-3-carboxamide]
IC50 (ALDH1A1 enzyme): < 500 nM
IC50 (MIA PaCa-2 cells): 1000 to 10000 nM

SMILES: CS(=O)(=O)C1CCN(C(=O)c2cnc3ccc(F)cc3c2N2CCC3(CC2)OCCO3)CC1 [Example 185, (6-fluoro-4-(1,4-dioxa-8-azaspiro[4.5]decan-8-yl)quinolin-3-yl)(4-(methylsulfonyl)piperidin-1-yl)methanone]
IC50 (ALDH1A1 enzyme): < 500 nM
IC50 (MIA PaCa-2 cells): 1000 to 10000 nM

SMILES: COc1ccc2ncc(C(=O)N3CCN(C(=O)C4CC4)CC3)c(N3CCC4(CC3)CC4)c2c1 [Example 46, (4-(cyclopropanecarbonyl)piperazin-1-yl)(6-methoxy-4-(6-azaspiro[2.5]octan-6-yl)quinolin-3-yl)methanone]
IC50 (ALDH1A1 enzyme): < 500 nM
IC50 (MIA PaCa-2 cells): 1000 to 10000 nM

Further lines, results first:

IC50 (ALDH1A1 enzyme): < 500 nM
IC50 (MIA PaCa-2 cells): < 500 nM
SMILES: N#CC1(c2ccc(-c3c(C(=O)N[C@H]4CC[C@H](O)CC4)cnc4ccc(F)cc34)cc2)CC1 [Cpd. 338, 4-(4-(1-cyanocyclopropyl)phenyl)-6-fluoro-N-((1R,4R)-4-hydroxycyclohexyl)quinoline-3-carboxamide]

IC50 (ALDH1A1 enzyme): < 500 nM
IC50 (MIA PaCa-2 cells): > 10000 nM
SMILES: COc1ccc2ncc(C(=O)N3CCS(=O)(=O)CC3)c(N3CCC4(CC3)OCCO4)c2c1 [Example 36, (1,1-dioxidothiomorpholino)(6-methoxy-4-(1,4-dioxa-8-azaspiro[4.5]decan-8-yl)quinolin-3-yl)methanone]

IC50 (ALDH1A1 enzyme): < 500 nM
IC50 (MIA PaCa-2 cells): 1000 to 10000 nM
SMILES: CS(=O)(=O)C1CCN(C(=O)c2cnc3cc(F)c(F)cc3c2N2CCC3(CC2)OCCO3)CC1 [Example 187, (6,7-difluoro-4-(1,4-dioxa-8-azaspiro[4.5]decan-8-yl)quinolin-3-yl)(4-(methylsulfonyl)piperidin-1-yl)methanone]

IC50 (ALDH1A1 enzyme): < 500 nM
IC50 (MIA PaCa-2 cells): < 500 nM
SMILES: CS(=O)(=O)N1CCN(C(=O)c2cnc3ccc(F)cc3c2N2CCC(C#N)(CC3CC3)CC2)CC1 [Example 243, 4-(cyclopropylmethyl)-1-(6-fluoro-3-(4-(methylsulfonyl)piperazine-1-carbonyl)quinolin-4-yl)piperidine-4-carbonitrile]

IC50 (ALDH1A1 enzyme): < 500 nM
IC50 (MIA PaCa-2 cells): < 500 nM
SMILES: CS(=O)(=O)C1CCN(C(=O)c2cnc3ccc(F)cc3c2N2CCC(C#N)(c3ccccc3)CC2)CC1 [Example 269, 1-(6-fluoro-3-(4-(methylsulfonyl)piperidine-1-carbonyl)quinolin-4-yl)-4-phenylpiperidine-4-carbonitrile]

IC50 (ALDH1A1 enzyme): < 500 nM
IC50 (MIA PaCa-2 cells): 500 to 1000 nM
SMILES: CC(=O)C1(c2ccccc2)CCN(c2c(C(=O)N3CCN(C(=O)C4CC4)CC3)cnc3ccc(F)cc23)CC1 [Example 215, 1-(1-(3-(4-(cyclopropanecarbonyl)piperazine-1-carbonyl)-6-fluoroquinolin-4-yl)-4-phenylpiperidin-4-yl)ethanone]

IC50 (ALDH1A1 enzyme): < 500 nM
IC50 (MIA PaCa-2 cells): > 10000 nM
SMILES: COc1ccc2ncc(C(=O)N3CCN(C(=O)C4CC4)CC3)c(N3CCC(C)(OC)CC3)c2c1 [Example 26, (4-(cyclopropanecarbonyl)piperazin-1-yl)(6-methoxy-4-(4-methoxy-4-methylpiperidin-1-yl)quinolin-3-yl)methanone]
